Measured values as given in the NIST ThermoML archive (doi:10.1016/j.fluid.2014.04.002).
Numbers after ± are expanded uncertainties.

Legend:
[1] = xn = mol fraction of the nth substance listed; details: 101 kPa, Liquid; for viscosity: Concentric cylinders viscometry; for mass density: Vibrating tube method
[2] = refractive index (Na D-line) (dimensionless); xn = mol fraction of the nth substance listed; details: 101 kPa, Liquid, Standard Abbe refractometry
[3] = 101 kPa, Liquid; for viscosity: Concentric cylinders viscometry; for mass density: Vibrating tube method
[4] = refractive index (Na D-line) (dimensionless); details: 101.33 kPa, Liquid, Standard Abbe refractometry

CCOC(=O)C(C)O (stereo not drawn) [DL-ethyl lactate] + COCCOCCOCCOCCOC
x1 = 1
Details	mass density, [1] [kg/m3]	refractive index, [2]	viscosity, [1] [mPa·s]
288.15 K	1039.28 ± 0.92	1.41537 ± 0.00051	3.207 ± 0.062
293.15 K	1033.84 ± 0.91	1.41307 ± 0.00051	2.75 ± 0.053
298.15 K	1028.39 ± 0.9	1.41076 ± 0.00051	2.39 ± 0.046
303.15 K	1022.92 ± 0.88	1.40843 ± 0.00051	2.097 ± 0.041
308.15 K	1017.42 ± 0.87	1.4061 ± 0.00051	1.858 ± 0.036
313.15 K	1011.9 ± 0.86	1.40374 ± 0.00051	1.658 ± 0.032
318.15 K	1006.36 ± 0.85	1.40136 ± 0.00051	1.491 ± 0.029
323.15 K	1000.79 ± 0.84	1.39898 ± 0.00051	1.349 ± 0.026

OCCCO [propan-1,3-diol]
Details	mass density, [3] [kg/m3]	refractive index, [4]	viscosity, [3] [mPa·s]
288.15 K	1055.89 ± 0.95	1.44091 ± 0.00051	67.3 ± 1.3
293.15 K	1052.8 ± 0.95	1.43949 ± 0.00051	52.52 ± 1
298.15 K	1049.69 ± 0.94	1.43808 ± 0.00051	41.51 ± 0.8
303.15 K	1046.57 ± 0.93	1.43667 ± 0.00051	33.2 ± 0.64
308.15 K	1043.43 ± 0.93	1.43526 ± 0.00051	26.86 ± 0.52
313.15 K	1040.28 ± 0.92	1.43384 ± 0.00051	21.97 ± 0.42
318.15 K	1037.11 ± 0.91	1.43243 ± 0.00051	18.14 ± 0.35
323.15 K	1033.91 ± 0.91	1.43101 ± 0.00051	15.2 ± 0.29

OCCCO [propan-1,3-diol] + CCOC(=O)C(C)O
x2 = 0
Details	mass density, [1] [kg/m3]	refractive index, [2]	viscosity, [1] [mPa·s]
288.15 K	1055.89 ± 0.95	1.44091 ± 0.00051	67.3 ± 1.3
293.15 K	1052.8 ± 0.95	1.43949 ± 0.00051	52.52 ± 1
298.15 K	1049.69 ± 0.94	1.43808 ± 0.00051	41.51 ± 0.8
303.15 K	1046.57 ± 0.93	1.43667 ± 0.00051	33.2 ± 0.64
308.15 K	1043.43 ± 0.93	1.43526 ± 0.00051	26.86 ± 0.52
313.15 K	1040.28 ± 0.92	1.43384 ± 0.00051	21.97 ± 0.42
318.15 K	1037.11 ± 0.91	1.43243 ± 0.00051	18.14 ± 0.35
323.15 K	1033.91 ± 0.91	1.43101 ± 0.00051	15.2 ± 0.29

C1CCOC1 [tetrahydrofuran]
Details	mass density, [3] [kg/m3]	refractive index, [4]	viscosity, [3] [mPa·s]
288.15 K	893.293 ± 0.23	1.41005 ± 0.00037	0.5252 ± 0.01
293.15 K	887.865 ± 0.23	1.40737 ± 0.00037	0.5048 ± 0.0098
298.15 K	882.403 ± 0.23	1.40472 ± 0.00037	0.4847 ± 0.0095
303.15 K	876.911 ± 0.23	1.40203 ± 0.00037	0.464 ± 0.0092
308.15 K	871.384 ± 0.23	1.39931 ± 0.00037	0.4433 ± 0.0088
313.15 K	865.82 ± 0.23	1.39659 ± 0.00037	0.4227 ± 0.0085
318.15 K	860.213 ± 0.23	1.3938 ± 0.00037	0.4005 ± 0.0082
323.15 K	854.558 ± 0.23	1.39098 ± 0.00037	0.3636 ± 0.0076

C1CCOC1 [tetrahydrofuran] + CCOC(=O)C(C)O
x2 = 0
Details	mass density, [1] [kg/m3]	refractive index, [2]	viscosity, [1] [mPa·s]
288.15 K	893.293 ± 0.23	1.41005 ± 0.00037	0.5252 ± 0.01
293.15 K	887.865 ± 0.23	1.40737 ± 0.00037	0.5048 ± 0.0098
298.15 K	882.403 ± 0.23	1.40472 ± 0.00037	0.4847 ± 0.0095
303.15 K	876.911 ± 0.23	1.40203 ± 0.00037	0.464 ± 0.0092
308.15 K	871.384 ± 0.23	1.39931 ± 0.00037	0.4433 ± 0.0088
313.15 K	865.82 ± 0.23	1.39659 ± 0.00037	0.4227 ± 0.0085
318.15 K	860.213 ± 0.23	1.3938 ± 0.00037	0.4005 ± 0.0082
323.15 K	854.558 ± 0.23	1.39098 ± 0.00037	0.3636 ± 0.0076
